Earlier results on two molecules are cited in patent US5698219A, “Nanoemulsion of the oil water type, useful as an ophthalmic vehicle and process for the preparation thereof” (Laboratorios Cusi, S.A., priority 1994, dated 1997).

For the data set the following is noted: EP 0 521 799 A1; benzalkonium chloride at 0.02% (w/v).

`C[CH2][Hg][S]c1ccccc1C(=O)[O-].[Na+]` [thimerosal]: the “preservative effectiveness when used individually” value was “lack of effectiveness”.

Take benzalkonium chloride: the “preservative effectiveness when used individually” value is reported as “lack of effectiveness”.
